Structures are written as SMILES.

Broadly, the IC50 is the concentration at which inhibition is half-maximal.

In the experiment the target is interaction between GST-MAGEA11 MHD and FAM-PCF11_4 peptide (MAGE-A11:PCF11) (Homo sapiens (Human), UniProt P43364). The experiment can be described thus: TR-FRET dose response competition assay for disruption of MAGE-A11:PCF11 binding. The settings on record: Dose response TR-FRET screening of nine scaffold groups against MAGE-A11:PCF11; read-out: consensus IC50. In outline: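 Competition TR-FRET at room temperature in 50 mM Tris pH 7.5, 20 mM MgCl2, 0.1 mg/ml BSA, 1 mM DTT: final 5 nM GST-MAGEA11 MHD, 5 nM Tb-anti-GST, 200 nM FAM-PCF11_4, 90 min. Ratio 520/490 nm converted to % inhibition; IC50 from sigmoidal fit.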
Chain of interaction between GST-MAGEA11 MHD and FAM-PCF11_4 peptide (MAGE-A11:PCF11) (P43364 218-429): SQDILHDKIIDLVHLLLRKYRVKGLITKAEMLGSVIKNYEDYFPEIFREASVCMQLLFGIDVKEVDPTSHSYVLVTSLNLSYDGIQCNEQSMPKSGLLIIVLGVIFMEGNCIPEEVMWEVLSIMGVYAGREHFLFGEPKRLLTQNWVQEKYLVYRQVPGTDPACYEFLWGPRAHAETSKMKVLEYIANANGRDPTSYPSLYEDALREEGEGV
Turning to `CCCn1c(-c2ccc(C(=O)OC)cc2)nc2c1c(=O)[nH]c(=O)n2Cc1ccccc1` [SJ000420179-1], the half-maximal inhibitory concentration (IC50) amounted to 69.9 µM. The same measure for `CCc1ccc(-c2nc3c(c(=O)[nH]c(=O)n3CC(C)C)n2CCOC)cc1` [SJ000420343-1]: 69.9 µM; for `CCCCn1c(=O)[nH]c(=O)c2c1nc(-c1ccc(C#N)cc1)n2C` [SJ000421295-1]: 69.9 µM.

For `COCCn1c(-c2ccc(C)cc2)nc2c1c(=O)[nH]c(=O)n2CC(C)C` [SJ000421396-1], the IC50 was 69.9 µM. The same measure for `CCCCn1c(=O)[nH]c(=O)c2c1nc(-c1ccc(F)cc1)n2CCOC` [SJ000421862-1]: 69.9 µM. For the molecule `COCCn1c(-c2ccc(F)cc2)nc2c1c(=O)[nH]c(=O)n2CC(C)C` [SJ000422648-1], the IC50 was 69.9 µM. Consider `CCCn1c(=O)[nH]c(=O)c2c1nc(-c1ccc(OC)cc1)n2CCOC` [SJ000423271-1], for which the IC50 was determined as 69.9 µM.

`CCCn1c(=O)[nH]c(=O)c2c1nc(-c1cccc(C)c1)n2CCOC` [SJ000423281-1]: the IC50 turned out to be 69.9 µM. The same measure for `CCCn1c(=O)[nH]c(=O)c2c1nc(-c1ccc(Cl)cc1)n2CCOC` [SJ000424475-1]: 69.9 µM; for `CCCCn1c(=O)[nH]c(=O)c2c1nc(-c1ccc(C)cc1)n2C` [SJ000425093-1]: 69.9 µM; for `CCCn1c(=O)[nH]c(=O)c2c1nc(-c1ccc(OC)c(C)c1)n2CCOC` [SJ000425187-1]: 69.9 µM. The value for `COCCn1c(-c2ccc(OC)cc2)nc2c1c(=O)[nH]c(=O)n2CC(C)C` [SJ000425224-1] was 69.9 µM; that for `CCCCn1c(=O)[nH]c(=O)c2c1nc(-c1ccc(OC)c(C)c1)n2C` [SJ000425256-1] was 69.9 µM; that for `CCCCn1c(=O)[nH]c(=O)c2c1nc(-c1ccc(OC)cc1)n2C` [SJ000425260-1] was 69.9 µM. The value for `CC(C)NC(=O)NC(=O)Cn1cnc2cc(-c3ccccc3)sc2c1=O` [SJ000425388-1] was 69.9 µM; that for `CN(C)C(=O)Cn1cnc2cc(-c3ccccc3)sc2c1=O` [SJ000425603-1] was 69.9 µM. Regarding `CCC(C)(C)NC(=O)Cn1cnc2cc(-c3ccccc3)sc2c1=O` [SJ000425613-1], the IC50 turned out to be 69.9 µM. The same measure for `CCN(CC)C(=O)Cn1cnc2cc(-c3ccccc3)sc2c1=O` [SJ000425666-1]: 69.9 µM; for `COCCn1c(-c2cccc(C)c2)nc2c1c(=O)[nH]c(=O)n2CC(C)C` [SJ000426389-1]: 69.9 µM. The value for `C=CCNC(=O)NC(=O)Cn1cnc2cc(-c3ccccc3)sc2c1=O` [SJ000426777-1] was 69.9 µM. The same measure for `CCCn1c(=O)[nH]c(=O)c2c1nc(-c1cccc(OC)c1)n2CCOC` [SJ000427207-1]: 69.9 µM. Consider `CCCCn1c(=O)[nH]c(=O)c2c1nc(-c1ccc(OCC)c(OC)c1)n2CCOC` [SJ000427387-1], for which the IC50 turned out to be 69.9 µM.

In the case of `COCC(C)NC(=O)Cn1cnc2cc(-c3ccc(Br)cc3)sc2c1=O` (stereo not drawn) [SJ000427828-1], the IC50 was determined as 69.9 µM. The value for `CC(C)(C)NC(=O)NC(=O)Cn1cnc2cc(-c3ccccc3)sc2c1=O` [SJ000427956-1] was 69.9 µM; that for `C=C(C)CN(CC)C(=O)Cn1cnc2cc(-c3ccc(OC)cc3)sc2c1=O` [SJ000429044-1] was 69.9 µM. The value for `CCCCn1c(=O)[nH]c(=O)c2c1nc(-c1ccc(O)c(OC)c1)n2CCC` [SJ000429070-1] was 69.9 µM; that for `CCn1c(-c2ccc(O)c(OC)c2)nc2c1c(=O)[nH]c(=O)n2Cc1ccccc1` [SJ000430392-1] was 69.9 µM.

For the molecule `COc1cc(-c2nc3c(c(=O)[nH]c(=O)n3Cc3ccccc3)n2C)ccc1O` [SJ000430813-1], the IC50 came to 69.9 µM.

As for `CCCCn1c(=O)[nH]c(=O)c2c1nc(-c1ccc(OCC(=O)O)cc1)n2CCC(C)C` [SJ000431347-1], the IC50 worked out at 69.9 µM.

On to `CCCn1c(=O)[nH]c(=O)c2c1nc(-c1cccc(Br)c1)n2CCOC` [SJ000431389-1], for which the IC50 was determined as 69.9 µM.

Take `C=CCN(CC=C)C(=O)Cn1cnc2cc(-c3ccc(OC)cc3)sc2c1=O` [SJ000431447-1]: the IC50 is 69.9 µM.

Turning to `CCCn1c(-c2cc(Br)ccc2F)nc2c1c(=O)[nH]c(=O)n2Cc1ccccc1` [SJ000437843-1], the half-maximal inhibitory concentration (IC50) stood at 69.9 µM. The value for `Cn1c(-c2ccc(OCC(=O)O)cc2)nc2c1c(=O)[nH]c(=O)n2Cc1ccccc1` [SJ000441071-1] was 69.9 µM.

Consider `COc1ccc(CNC(=O)Cn2cnc3cc(-c4ccc(OC)cc4)sc3c2=O)cc1` [SJ000441316-1], for which the IC50 was 69.9 µM.

On to `COc1ccc(-c2cc3ncn(CC(=O)NCc4ccc(F)cc4)c(=O)c3s2)cc1` [SJ000443969-1], for which the IC50 amounted to 69.9 µM. The value for `O=C(Cn1cnc2cc(-c3ccc(Cl)cc3)sc2c1=O)NCc1ccc(F)cc1` [SJ000444020-1] was 69.9 µM; that for `COc1ccccc1CNC(=O)Cn1cnc2cc(-c3ccc(Cl)cc3)sc2c1=O` [SJ000444040-1] was 69.9 µM.

`Cc1ccc(CNC(=O)Cn2cnc3cc(-c4ccc(Cl)cc4)sc3c2=O)cc1` [SJ000445272-1]: the IC50 is 69.9 µM. The same measure for `COc1ccc(-c2cc3ncn(CC(=O)NCc4ccc(C)cc4)c(=O)c3s2)cc1` [SJ000445282-1]: 69.9 µM; for `CC(=O)Cn1cnc2cc(-c3ccccc3)sc2c1=O` [SJ000448314-1]: 69.9 µM; for `COc1ccc(-c2cc3ncn(CC(=O)NCc4ccccc4F)c(=O)c3s2)cc1` [SJ000449696-1]: 69.9 µM. Consider `COc1ccc(-c2cc3ncn(CC(=O)NCc4ccccc4Cl)c(=O)c3s2)cc1` [SJ000449845-1], for which the IC50 is 69.9 µM. Regarding `COC(=O)CSc1nc2cc(-c3ccccc3)sc2c(=O)n1CCN1CCOCC1` [SJ000451551-1], the IC50 came out at 69.9 µM.

Take `CC(C)(C)C(=O)CSc1nc2cc(-c3ccccc3)sc2c(=O)n1CCN1CCOCC1` [SJ000451590-1]: the IC50 was 69.9 µM.

Regarding `CCCCCn1c(-c2cccc(OC)c2)nc2c1c(=O)[nH]c(=O)n2CCCC` [SJ000451928-1], the IC50 is 69.9 µM. The value for `COc1ccccc1CNC(=O)Cn1cnc2cc(-c3ccccc3)sc2c1=O` [SJ000452125-1] was 69.9 µM; that for `CCCn1cnc2cc(-c3ccc(Cl)cc3)sc2c1=O` [SJ000452142-1] was 69.9 µM; that for `CCCn1c(-c2ccc(OC)cc2)nc2c1c(=O)[nH]c(=O)n2Cc1ccccc1` [SJ000452204-1] was 69.9 µM. The same measure for `O=c1c2sc(-c3ccccc3)cc2nc(SCCO)n1CCN1CCOCC1` [SJ000452798-1]: 69.9 µM. In the case of `Cc1ccccc1CNC(=O)Cn1cnc2cc(-c3ccccc3)sc2c1=O` [SJ000453315-1], the IC50 was 69.9 µM. Turning to `CCCSc1nc2cc(-c3ccccc3)sc2c(=O)n1CCN1CCOCC1` [SJ000453419-1], the half-maximal inhibitory concentration (IC50) came out at 69.9 µM. The value for `C=CCSc1nc2cc(-c3ccccc3)sc2c(=O)n1CCN1CCOCC1` [SJ000453564-1] was 69.9 µM.

With `COc1ccc(-c2cc3ncn(CC(=O)NCc4ccccc4C)c(=O)c3s2)cc1` [SJ000455215-1], the IC50 amounted to 69.9 µM. The value for `O=C(Cn1cnc2cc(-c3ccc(Cl)cc3)sc2c1=O)NCc1ccccc1F` [SJ000455225-1] was 69.9 µM; that for `O=C(Cn1cnc2cc(-c3ccccc3)sc2c1=O)NCc1ccccc1Cl` [SJ000455850-1] was 69.9 µM; that for `C=C(C)CSc1nc2cc(-c3ccccc3)sc2c(=O)n1CCN1CCOCC1` [SJ000456069-1] was 0.861 µM. The same measure for `O=C(Cn1cnc2cc(-c3ccccc3)sc2c1=O)NCc1ccccc1OC(F)(F)F` [SJ000456118-1]: 69.9 µM; for `C=C(C)Cn1cnc2cc(-c3ccc(Cl)cc3)sc2c1=O` [SJ000456507-1]: 69.9 µM. For `CCCn1c(-c2ccc(F)cc2)nc2c1c(=O)[nH]c(=O)n2Cc1ccccc1` [SJ000456724-1], the IC50 was found to be 69.9 µM. For the molecule `COc1ccc(CNC(=O)Cn2cnc3cc(-c4ccc(Cl)cc4)sc3c2=O)cc1` [SJ000457620-1], the IC50 came to 69.9 µM.

For `COc1ccc(-c2cc3ncn(CC(=O)NCc4ccc(Cl)cc4)c(=O)c3s2)cc1` [SJ000457991-1], the IC50 worked out at 69.9 µM.

Take `N#CCCn1cnc2cc(-c3ccc(F)cc3)sc2c1=O` [SJ000458551-1]: the IC50 came to 69.9 µM. The same measure for `CCCn1c(=O)[nH]c(=O)c2c1nc(-c1ccc(OC(F)F)c(OC)c1)n2CCOC` [SJ000459257-1]: 69.9 µM; for `CCCCCn1c(-c2cccc(F)c2)nc2c1c(=O)[nH]c(=O)n2CCCC` [SJ000460165-1]: 69.9 µM.

As for `CCCn1c(=O)[nH]c(=O)c2c1nc(-c1ccc(F)c(F)c1)n2CCOC` [SJ000460758-1], the IC50 stood at 69.9 µM. The same measure for `CC(NC=O)c1ccc2c(c1)c1ccccc1n2C` (stereo not drawn) [SJ000461804-1]: 69.9 µM; for `CCn1c2ccccc2c2cc(C(C)NC=O)ccc21` (stereo not drawn) [SJ000461805-1]: 69.9 µM; for `CC1CN(c2oc(-c3ccc([N+](=O)[O-])cc3)nc2C#N)CC(C)O1` (stereo not drawn) [SJ000478204-1]: 69.9 µM. The value for `CC1CN(c2oc(-c3ccc(Cl)cc3)nc2C#N)CC(C)O1` (stereo not drawn) [SJ000478208-1] was 69.9 µM; that for `COc1ccc(-c2nc(C#N)c(N3CC(C)OC(C)C3)o2)cc1` (stereo not drawn) [SJ000478212-1] was 69.9 µM. The same measure for `CCOc1ccc(-c2nc(C#N)c(N3CC(C)OC(C)C3)o2)cc1` (stereo not drawn) [SJ000478356-1]: 69.9 µM; for `Cc1ccc(-c2nc(C#N)c(N3CC(C)OC(C)C3)o2)cc1` (stereo not drawn) [SJ000478358-1]: 69.9 µM; for `CC1CN(c2oc(-c3ccc(F)cc3)nc2C#N)CC(C)O1` (stereo not drawn) [SJ000478453-1]: 69.9 µM. `CCn1c2ccccc2c2cc(CNCC(C)O)ccc21` (stereo not drawn) [SJ000505727-1]: the IC50 is 69.9 µM. The same measure for `O=C1c2ccccc2NC(c2ccc(Br)cc2)N1Cc1ccc(Cl)cc1` (stereo not drawn) [SJ000508213-1]: 69.9 µM.

Source of the values: US20240246941A1, “SUBSTITUTED 4-(3-AMINOPROP-1-YL)AMINOQUINOLINE ANALOGS AS MODULATORS OF MELANOMA-ASSOCIATED ANTIGEN 11 UBIQUITIN LIGASE” (ST. JUDE CHILDREN'S RESEARCH HOSPITAL, INC., priority 2020, published 2024).
